Test results reported in PubChem BioAssay AID2305 (GlaxoSmithKline (GSK), 2010).
“And” between values parts separate entries of the source, which are not always exact repeats. Equal entries are not always repeated.

What follows are molecules tested on P. falciparum 3D7 growth, pLDH absorbance (assay: P. falciparum 3D7 growth inhibition, dose response, strain 3D7 (AID 2305)).

`CC(C)Oc1cccc(-c2ccc(C(=O)NCC3CCCN(Cc4cccc(C(F)(F)F)c4)C3)s2)c1` (stereo not given) and `COc1ccc(CN2CCC(NCc3cccc(C(F)(F)F)c3)CC2)cc1` are within 1.5-fold of each other in IC50: 1080 nM for the first, 750 nM for the second.

`COc1ccc(CNC(=O)C2Cc3ccccc3CN2Cc2ccc3ccccc3c2)cc1` (stereo not given) and `COc1cccc(C(=O)NCCOc2ccccc2)c1Oc1ccccc1` are within 1.5-fold of each other in IC50: 1100 nM for the first, 920 nM for the second.

Compared with `CCN(CC)CCN(Cc1ccc(-c2ccc(C(F)(F)F)cc2)cc1)C(=O)Cn1c(CCc2cccc(F)c2F)nc(=O)c2ccc(F)cc21`, `CCN(CC)CCN(Cc1ccc(-c2ccc(C(F)(F)F)cc2)cc1)C(=O)Cn1c(CCc2cccc(F)c2F)nc(=O)c2cc(C)ccc21` is 2.6-fold higher in IC50: 360 nM for the first, 940 nM for the second. The first is the more potent here.

`COc1cc(NCC2(CNCc3cn(Cc4ccccc4)c4ccccc34)CCCCC2)nc2ccccc12` and `COc1cc(NCC(CN)Cc2ccc3c(c2)OCO3)nc2ccccc12` (stereo not given) are within 1.5-fold of each other in IC50: 950 nM for the first, 820 nM for the second.

`Cc1ccc(CNC(=O)c2cc3c(=O)n4cccc(C)c4nc3n(CCN3CCOCC3)c2=N)cc1` and `CCCNC(=O)Nc1cc2cc(-c3cccc(CN4CCCCC4)c3)ccc2n2c(C)nnc12` are within 1.5-fold of each other in IC50: 850 nM for the first, 1110 nM for the second.

`COc1ccc2nccc([C@@H](O)CN3CCC(NC(=O)[C@@H]4Cc5ccccc5CN4C(=O)OC(C)(C)C)CC3)c2c1` and `COc1ccc2nccc([C@@H](O)CN3CCC(NCc4ccc(OC)c(NC(C)=O)c4)CC3)c2c1` are within 1.5-fold of each other in IC50: 890 nM for the first, 840 nM for the second.

Compared with `CCN1CCN(c2ccc(Nc3ccnc4ccc(Br)cc34)cc2)CC1`, `CN1CCN(Cc2ccc(-c3cc4nccc(Nc5ccc(Oc6ccccc6)cc5)c4cc3Cl)o2)CC1` is 3.3-fold higher in IC50: 300 nM for the first, 980 nM for the second. The first is the more potent here.

`CC(C)COc1ccc(Cl)cc1Cc1nc(-c2nc3ccc(CN4CCCC4)cc3[nH]2)co1` and `O=C(Nc1ccc(-c2ccc(CN3CCNCC3)cc2)cc1)c1cccc(Cl)c1` are within 1.5-fold of each other in IC50: 730 nM for the first, 890 nM for the second.

Going from `N#Cc1ccc(NC(=NCc2ccc(Cl)cc2Cl)Nc2cccc(Cl)c2Cl)c(O)c1` to `Cn1c(NC(=O)CCCCCNC(=O)c2ccc(O)c(-c3ccc(Cl)c(Cl)c3)c2)nc2ccccc21`, the IC50 falls from 1120 nM to 730 nM (1.5-fold). The second is the more potent here.

`CCc1ccc(CN2CCC(NC(=O)c3cc(-c4ccc(N(C)C)cc4)cs3)C2)cc1` (stereo not given) and `CN(C)c1ccc(-c2csc(C(=O)NCC3CCN(Cc4ccc(C(C)(C)C)cc4)C3)c2)cc1` (stereo not given) are within 1.5-fold of each other in IC50: 1440 nM for the first, 990 nM for the second.

Going from `CC(C)CCN(Cc1cncn1Cc1cccc(C(F)(F)F)c1)C(=O)c1ccccc1C#N` to `COc1ccccc1-n1ccnc1SCC(=O)Nc1cc(C(F)(F)F)ccc1Cl`, the IC50 falls from 610 nM to 10 nM (61-fold).

`N#Cc1cccc(C(=O)NC2CCN(c3ccnc(Nc4ccc(F)cc4)n3)C2)c1` (stereo not given) and `Cc1cc(NC(=O)NCCN2CCC(NC(=O)c3cccc(Br)c3)C2)c2ccccc2n1` (stereo not given) are within 1.5-fold of each other in IC50: 400 nM for the first, 550 nM for the second.

`COc1ccccc1C1CCN(CCCCNC(=O)c2ccc(/C=C/c3cc(Cl)cc(Cl)c3)cc2)CC1` and `COc1ccccc1C1CCN(C2CCC(NC(=O)/C=C/c3cccc(C(F)(F)F)c3)CC2)CC1` (stereo not given) are within 1.5-fold of each other in IC50: 720 nM for the first, 810 nM for the second.

Going from `CCOC(=O)c1c(CNc2ccncc2)n(C)c2cc(Br)c(OC(C)=O)cc12` to `CCOC(=O)c1c(NC(=O)c2ccccc2)sc2c(O)c(CNC3CCCCC3)ccc12`, the IC50 rises from 370 nM to 750 nM (2-fold). The first is the more potent here.

Compared with `O=C(Nc1ccccc1)Nc1cccc(-c2nn3c(OCC4CCCCN4)cccc3c2-c2ccncc2)c1` (stereo not given), `CCOC(=O)c1ccc(NC(=O)Nc2ccc(-c3cccc(-c4nc5ccccc5[nH]4)c3)cc2)cc1` is 6.1-fold lower in IC50: 860 nM for the first, 140 nM for the second. The second is the more potent here.

Compared with `Cc1[nH]c(C)c(-c2ccc(C#Cc3ccc(F)cc3F)cc2)c(=O)c1Br`, `Cc1cccc(NC(=O)Nc2cccc(-c3ccc(-c4nc5ccc(C(F)(F)F)cc5[nH]4)cc3)c2)c1` is 30-fold higher in IC50: 30 nM for the first, 900 nM for the second. The first is the more potent here.

`O=S(=O)(c1c(Cl)cccc1Cl)N1CCCCC(c2ccc(C(F)(F)F)cc2)=N1` and `CS(=O)(=O)c1ccc(CNCc2ccc(-c3cccc(-c4nc5ccc(C(F)(F)F)cc5[nH]4)c3)cc2)cc1` are within 1.5-fold of each other in IC50: 130 nM for the first, 140 nM for the second.

Compared with `CN(C)CCNCc1cccc(-c2ccc3c(Nc4cc(O)c(Cl)cc4F)ccnc3c2)c1`, `CN(C)Cc1ccc(-c2cc3ncnc(Nc4ccc(OCc5cccc(F)c5)c(Cl)c4)c3s2)[nH]1` is 3.2-fold lower in IC50: 550 nM for the first, 170 nM for the second.

`CCOc1ccc(C(=O)Nc2cc(Br)c3c(c2)CNCC3)cc1Cl` and `CN(C)CCNC(=O)[C@H](CC1CCCCC1)NC(=O)c1ccc(O)c(-c2ccc(Cl)c(Cl)c2)c1` are within 1.5-fold of each other in IC50: 1040 nM for the first, 770 nM for the second.

`Nc1c(Cl)cc(C(O)CNCCCCCOCCc2ccc3occc3c2)cc1Cl` (stereo not given) and `COc1cccc(CCc2c(CCNCCCCCCNCCc3ccccc3)ccc(OC)c2OC)c1` are within 1.5-fold of each other in IC50: 690 nM for the first, 720 nM for the second.

Going from `CCc1c(CCNCCCCCCNCCc2ccc(OC)c(OC)c2CC)ccc(OC)c1OC` to `CCCCCCCc1c(C)[nH]c2ccc(F)cc2c1=O`, the IC50 falls from 730 nM to 290 nM (2.5-fold).

Going from `S=C(NCCc1ccc(Cl)cc1)NC1CCC(CN2CCC(c3c[nH]c4ccccc34)CC2)CC1` (stereo not given) to `O=C(NCCc1ccccc1)N(Cc1ccccc1-c1ccc(CNC2CCCC2)cc1)C1CCN(Cc2ccccc2)CC1`, the IC50 rises from 700 nM to 1130 nM (1.6-fold).

Compared with `Oc1ccc(Cc2cc(Oc3c(I)cc(CCc4ncc[nH]4)cc3I)ccc2O)cc1`, `COc1cc2nccc(Nc3ccc4c(cnn4Cc4ccccc4F)c3)c2cc1OC` is 1.8-fold lower in IC50: 710 nM for the first, 400 nM for the second.

`CCC(C)NS(=O)(=O)c1ccc2nc(Nc3ccc(C)cc3)n(C3CCCCC3)c2c1` (stereo not given) and `CCC(C)c1ccc(NC(=O)Nc2ccnc3ccccc23)cc1` (stereo not given) are within 1.5-fold of each other in IC50: 460 nM for the first, 630 nM for the second.

`COc1ccc2c(NN=Cc3ccncc3)cc(C)nc2c1` and `Cc1cccc(CNc2nc(C)cc(NCCC(=O)Nc3ccccc3)n2)c1` are within 1.5-fold of each other in IC50: 810 nM for the first, 1050 nM for the second.

Going from `Cc1cc(N[C@@H](CC(C)C)C(=O)NCCOc2ccccc2)nc(NCCc2ccc(F)cc2)n1` to `Cc1cc(C(=O)CN2C(=O)NC(C)(c3ccc4ccccc4c3)C2=O)c(C)n1Cc1ccco1` (stereo not given), the IC50 falls from 1290 nM to 660 nM (2-fold).

Compared with `O[C@@H](c1cccc(OCc2ccccc2)c1)[C@@H]1CN(CCc2ccccc2)CC[C@@]1(O)c1ccccc1`, `CN1CCN(c2ccnc3cc4c(cc23)N(C(=O)Nc2ccc(-c3ccncc3)c3ccccc23)CC4)CC1` is 4.3-fold higher in IC50: 220 nM for the first, 950 nM for the second. The first is the more potent here.

`Cc1cc(C)c(C(=O)Nc2n[nH]c3nnc(-c4cccc(F)c4F)cc23)c(C)c1` and `Cc1ccn2cc(-c3ccc(NC(=O)c4ccc(Br)o4)cc3)nc2c1` are within 1.5-fold of each other in IC50: 1070 nM for the first, 740 nM for the second.

`N#CC(c1cccc(Cl)c1)c1ccc2c(C(F)(F)F)cc(C(F)(F)F)nc2n1` (stereo not given) and `CN(C)C(=O)O[C@@H]1CN[C@H](C#Cc2cc3ncnc(Nc4ccc5c(cnn5Cc5cccc(F)c5)c4)c3s2)C1` are within 1.5-fold of each other in IC50: 730 nM for the first, 760 nM for the second.

First: CC1CN=C(c2ccc(NC(=O)Nc3ccc(C4=NCC(C)N4)cc3)cc2)N1 (stereo not given)
Second: CN(C)c1cc(C(=O)N[C@@H](Cc2ccccc2)[C@H](O)CNC2CCCCC2)cc2[nH]ccc12
The IC50 of the first is 2.8-fold lower: 380 nM for the first, 1070 nM for the second.

Going from `O=C(/C=C/c1ccc(Cl)c(Cl)c1)NCCCCCN1CCC(NC(=O)NC2CCCCCC2)CC1` to `c1ccc(-c2nc(NC3CCCCC3)cc(C3CC3)n2)nc1`, the IC50 rises from 460 nM to 730 nM (1.6-fold). The first is the more potent here.

`CCOc1ccc(CCC(=O)O)cc1OCC` and `COc1ccc2nccc([C@@H](O)CN3CC[C@H](NCc4ccc5c(n4)NC(=O)CS5)[C@H](F)C3)c2c1` are within 1.5-fold of each other in IC50: 1030 nM for the first, 910 nM for the second.

`CC(C)C(=O)n1ncc2c3c(N)nc(N)nc3ccc21` and `Cc1cccc(N2C(N)=NC(N)=NC2(C)C)c1C` are within 1.5-fold of each other in IC50: 1030 nM for the first, 760 nM for the second.

`NC(N)=Nc1nccc(NCc2ccccc2)n1` and `Cc1cc(C(=O)CSc2nc3ccccc3n2-c2ccccc2)c(C)n1C1CCS(=O)(=O)C1` (stereo not given) are within 1.5-fold of each other in IC50: 890 nM for the first, 1000 nM for the second.

For `S=C(Nc1ccc2c(c1)OCCO2)NC1CCC(CN2CCC(c3c[nH]c4ccccc34)CC2)CC1` (stereo not given), the IC50 was 650 nM and 1000 nM.
For `CCOc1ccc2nccc([C@@H](O)[C@@H]3C[C@@H]4CCN3C[C@@H]4CC)c2c1`, the IC50 was 110 nM and 610 nM.
